Source: US7414041B2 (Trustees Of Tufts College, priority 1991, dated 2008)
Like-named read-outs stand apart in the source and are kept apart here.

Key:
E. faecalis ATCC 9790 = assay: MIC of tetracycline susceptible strains, C5 esters; format: cell-based; conditions: E. faecalis ATCC 9790, alone
S. aureus 4250 (Tet K) = assay: MIC/MLC chart, analog with and without doxycycline; format: cell-based
E. faecalis 158 (Tet L) = assay: MIC/MLC chart, analog with and without doxycycline; format: cell-based
E. coli D1-299 (Tet A) = format: cell-based;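 note: E. coli at roughly 5×10^5 cells/ml in L broth, analog and doxycycline alone or mixed in two-fold dilutions from 50 to under 1 µg/ml, 18 h at 37 °C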
S. aureus 450 = assay: MIC of tetracycline susceptible strains, C5 esters; format: cell-based; conditions: S. aureus 450, alone
[1] = target: T1, TET proteins responsible for tetracycline efflux (Class B tetracycline resistance determinant, strain D1-209) (Escherichia coli, UniProt P02980); assay: biochemical; parameters: species or system E. coli; conditions: uptake at 2.5 minutes, about 4 μM 3H-tetracycline; read-out: IC50
T1 construct: Everted vesicles, to which the TET proteins responsible for tetracycline efflux are attached; endogenous in cells; host or cells: E. coli strain D1-209 (everted membrane vesicles)

E. coli ML308 = assay: MIC of tetracycline susceptible strains, C5 esters; format: cell-based; conditions: E. coli ML308, alone
E. faecalis 211 (Tet M) = assay: MIC/MLC chart, analog with and without doxycycline; format: cell-based;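 note: broth checkerboard of two-fold drug dilutions, alone and mixed with doxycycline, bacteria near 5×10^5 cells/ml, 18 h incubation at 37 °C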

T1 sequence (P02980 whole entry): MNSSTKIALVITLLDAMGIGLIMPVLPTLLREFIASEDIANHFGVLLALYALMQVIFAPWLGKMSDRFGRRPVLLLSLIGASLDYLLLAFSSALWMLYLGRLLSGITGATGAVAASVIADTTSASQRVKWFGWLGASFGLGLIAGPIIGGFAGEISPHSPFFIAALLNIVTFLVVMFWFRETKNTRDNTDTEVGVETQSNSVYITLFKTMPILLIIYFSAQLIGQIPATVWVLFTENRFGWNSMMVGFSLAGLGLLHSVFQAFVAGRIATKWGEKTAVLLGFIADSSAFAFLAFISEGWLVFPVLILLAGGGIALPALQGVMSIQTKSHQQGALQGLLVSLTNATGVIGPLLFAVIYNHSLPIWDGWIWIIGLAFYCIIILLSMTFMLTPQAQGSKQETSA

Substance: 13-propylthio-5-proprionate-6-deoxy-tetracycline [Cmpd 8]
- MIC (E. faecalis ATCC 9790): 2.5 µg/mL
- growth / no growth (MIC) / killing (MLC) symbol (S. aureus 4250 (Tet K); analog .195 + doxy 1.56 μg/ml): +
- growth / no growth (MIC) / killing (MLC) symbol (S. aureus 4250 (Tet K); analog .195 + doxy 3.12 μg/ml): ◯
- growth / no growth (MIC) / killing (MLC) symbol (S. aureus 4250 (Tet K); analog alone .195 μg/ml): +
- growth / no growth (MIC) / killing (MLC) symbol (E. faecalis 158 (Tet L); analog .195 + doxy 1.56 μg/ml): +
- growth / no growth (MIC) / killing (MLC) symbol (E. faecalis 158 (Tet L); analog .195 + doxy 3.12 μg/ml): +
- growth / no growth (MIC) / killing (MLC) symbol (E. faecalis 158 (Tet L); analog .39 + doxy 1.56 μg/ml): ◯
- growth / no growth (MIC) / killing (MLC) symbol (E. faecalis 158 (Tet L); analog .39 + doxy 3.12 μg/ml): ◯
- growth / no growth (MIC) / killing (MLC) symbol (E. faecalis 158 (Tet L); analog alone .195 μg/ml): +
- growth / no growth (MIC) / killing (MLC) symbol (E. faecalis 158 (Tet L); analog alone .39 μg/ml): +
- growth / no growth (MIC) / killing (MLC) symbol (E. faecalis 158 (Tet L); analog alone .78 μg/ml): +
- growth / no growth (MIC) / killing (MLC) symbol (E. coli D1-299 (Tet A); analog 1.56 + doxy 1.55 μg/ml): +
- growth / no growth (MIC) / killing (MLC) symbol (E. coli D1-299 (Tet A); analog 1.56 + doxy 3.1 μg/ml): +
- growth / no growth (MIC) / killing (MLC) symbol (E. coli D1-299 (Tet A); analog 1.56 + doxy 6.2 μg/ml): +
- growth / no growth (MIC) / killing (MLC) symbol (E. coli D1-299 (Tet A); analog 1.56 + doxy 12.3 μg/ml): ◯
- growth / no growth (MIC) / killing (MLC) symbol (E. coli D1-299 (Tet A); analog 3.12 + doxy 1.53 μg/ml): +
- growth / no growth (MIC) / killing (MLC) symbol (E. coli D1-299 (Tet A); analog 3.12 + doxy 3.05 μg/ml): +
- growth / no growth (MIC) / killing (MLC) symbol (E. coli D1-299 (Tet A); analog 3.12 + doxy 6.1 μg/ml): +
- growth / no growth (MIC) / killing (MLC) symbol (E. coli D1-299 (Tet A); analog 6.25 + doxy 5.9 μg/ml): +
- growth / no growth (MIC) / killing (MLC) symbol (E. coli D1-299 (Tet A); analog 6.25 + doxy 3.0. μg/ml): +
- growth / no growth (MIC) / killing (MLC) symbol (E. coli D1-299 (Tet A); analog 6.25 + doxy […]): +
- growth / no growth (MIC) / killing (MLC) symbol (E. coli D1-299 (Tet A); analog 12.5 + doxy 2.8 μg/ml): +
- growth / no growth (MIC) / killing (MLC) symbol (E. coli D1-299 (Tet A); analog 12.5 + doxy 5.5 μg/ml): +
- growth / no growth (MIC) / killing (MLC) symbol (E. coli D1-299 (Tet A); analog 12.5 + doxy […]): +
- growth / no growth (MIC) / killing (MLC) symbol (E. coli D1-299 (Tet A); analog 25 + doxy 2.4 μg/ml): +
- growth / no growth (MIC) / killing (MLC) symbol (E. coli D1-299 (Tet A); analog 25 + doxy 4.7 μg/ml): +
- growth / no growth (MIC) / killing (MLC) symbol (E. coli D1-299 (Tet A); analog 25 + doxy […]): +
- growth / no growth (MIC) / killing (MLC) symbol (E. coli D1-299 (Tet A); analog 50 + doxy 1.56 μg/ml): +
- growth / no growth (MIC) / killing (MLC) symbol (E. coli D1-299 (Tet A); analog 50 + doxy 3.12 μg/ml): +
- growth / no growth (MIC) / killing (MLC) symbol (E. coli D1-299 (Tet A); analog 50 + doxy .78 μg/ml): +
- growth / no growth (MIC) / killing (MLC) symbol (E. coli D1-299 (Tet A); analog .195 + doxy 1.56 μg/ml): +
- growth / no growth (MIC) / killing (MLC) symbol (E. coli D1-299 (Tet A); analog .195 + doxy 3.12 μg/ml): +
- growth / no growth (MIC) / killing (MLC) symbol (E. coli D1-299 (Tet A); analog .195 + doxy 6.25 μg/ml): +
- growth / no growth (MIC) / killing (MLC) symbol (E. coli D1-299 (Tet A); analog .195 + doxy 12.5 μg/ml): +
- growth / no growth (MIC) / killing (MLC) symbol (E. coli D1-299 (Tet A); analog .39 + doxy 1.56 μg/ml): +
- growth / no growth (MIC) / killing (MLC) symbol (E. coli D1-299 (Tet A); analog .39 + doxy 3.12 μg/ml): +
- growth / no growth (MIC) / killing (MLC) symbol (E. coli D1-299 (Tet A); analog .39 + doxy 6.25 μg/ml): +
- growth / no growth (MIC) / killing (MLC) symbol (E. coli D1-299 (Tet A); analog .39 + doxy 12.5 μg/ml): +
- growth / no growth (MIC) / killing (MLC) symbol (E. coli D1-299 (Tet A); analog .78 + doxy 1.56 μg/ml): +
- growth / no growth (MIC) / killing (MLC) symbol (E. coli D1-299 (Tet A); analog .78 + doxy 3.12 μg/ml): +
- growth / no growth (MIC) / killing (MLC) symbol (E. coli D1-299 (Tet A); analog .78 + doxy 6.23 μg/ml): +
- growth / no growth (MIC) / killing (MLC) symbol (E. coli D1-299 (Tet A); analog .78 + doxy 12.4 μg/ml): +
- growth / no growth (MIC) / killing (MLC) symbol (E. coli D1-299 (Tet A); analog alone 1.56 μg/ml): +
- growth / no growth (MIC) / killing (MLC) symbol (E. coli D1-299 (Tet A); analog alone 3.12 μg/ml): +
- growth / no growth (MIC) / killing (MLC) symbol (E. coli D1-299 (Tet A); analog alone 6.25 μg/ml): +
- growth / no growth (MIC) / killing (MLC) symbol (E. coli D1-299 (Tet A); analog alone 12.5 μg/ml): +
- growth / no growth (MIC) / killing (MLC) symbol (E. coli D1-299 (Tet A); analog alone 25.0 μg/ml): +
- growth / no growth (MIC) / killing (MLC) symbol (E. coli D1-299 (Tet A); analog alone 50.00 μg/ml): +
- growth / no growth (MIC) / killing (MLC) symbol (E. coli D1-299 (Tet A); analog alone .195 μg/ml): +
- growth / no growth (MIC) / killing (MLC) symbol (E. coli D1-299 (Tet A); analog alone .39 μg/ml): +
- growth / no growth (MIC) / killing (MLC) symbol (E. coli D1-299 (Tet A); analog alone .78 μg/ml): +
- MIC (S. aureus 450): .3 µg/mL
- IC50 [1]: 1.4 µM
- MIC (E. coli ML308): 20 µg/mL
- growth / no growth (MIC) / killing (MLC) symbol (E. faecalis 211 (Tet M); analog 1.56 + doxy 1.55 μg/ml): +
- growth / no growth (MIC) / killing (MLC) symbol (E. faecalis 211 (Tet M); analog 1.56 + doxy 3.1 μg/ml): +
- growth / no growth (MIC) / killing (MLC) symbol (E. faecalis 211 (Tet M); analog 1.56 + doxy 6.2 μg/ml): +
- growth / no growth (MIC) / killing (MLC) symbol (E. faecalis 211 (Tet M); analog 3.12 + doxy 1.53 μg/ml): ◯
- growth / no growth (MIC) / killing (MLC) symbol (E. faecalis 211 (Tet M); analog 3.12 + doxy 3.05 μg/ml): ◯
- growth / no growth (MIC) / killing (MLC) symbol (E. faecalis 211 (Tet M); analog .195 + doxy 1.56 μg/ml): +
- growth / no growth (MIC) / killing (MLC) symbol (E. faecalis 211 (Tet M); analog .195 + doxy 3.12 μg/ml): +
- growth / no growth (MIC) / killing (MLC) symbol (E. faecalis 211 (Tet M); analog .195 + doxy 6.25 μg/ml): +
- growth / no growth (MIC) / killing (MLC) symbol (E. faecalis 211 (Tet M); analog .195 + doxy 12.5 μg/ml): +
- growth / no growth (MIC) / killing (MLC) symbol (E. faecalis 211 (Tet M); analog .39 + doxy 1.56 μg/ml): +
- growth / no growth (MIC) / killing (MLC) symbol (E. faecalis 211 (Tet M); analog .39 + doxy 3.12 μg/ml): +
- growth / no growth (MIC) / killing (MLC) symbol (E. faecalis 211 (Tet M); analog .39 + doxy 6.25 μg/ml): +
- growth / no growth (MIC) / killing (MLC) symbol (E. faecalis 211 (Tet M); analog .39 + doxy 12.5 μg/ml): +
- growth / no growth (MIC) / killing (MLC) symbol (E. faecalis 211 (Tet M); analog .78 + doxy 1.56 μg/ml): +
- growth / no growth (MIC) / killing (MLC) symbol (E. faecalis 211 (Tet M); analog .78 + doxy 3.12 μg/ml): +
- growth / no growth (MIC) / killing (MLC) symbol (E. faecalis 211 (Tet M); analog .78 + doxy 6.23 μg/ml): +
- growth / no growth (MIC) / killing (MLC) symbol (E. faecalis 211 (Tet M); analog alone 1.56 μg/ml): +
- growth / no growth (MIC) / killing (MLC) symbol (E. faecalis 211 (Tet M); analog alone 3.12 μg/ml): ◯
- growth / no growth (MIC) / killing (MLC) symbol (E. faecalis 211 (Tet M); analog alone .195 μg/ml): +
- growth / no growth (MIC) / killing (MLC) symbol (E. faecalis 211 (Tet M); analog alone .39 μg/ml): +
- growth / no growth (MIC) / killing (MLC) symbol (E. faecalis 211 (Tet M); analog alone .78 μg/ml): +
